10 compounds from ChEMBL document CHEMBL3745605, “Aspernigrins with anti-HIV-1 activities from the marine-derived fungus Aspergillus niger SCSIO Jcsw6F30” (Bioorg Med Chem Lett, 2016) can be followed below.

As a reminder, the IC50 is the midpoint of a concentration-inhibition curve. Higher therefore signals weaker potency in that assay. The CC50 is the concentration at which the toxic effect on the cells reaches its halfway point. A low value points to harm at low concentration.

Calls of active or inactive are those of the source. No cut-off for these calls is given here. Bridge positions count the residues as written; N and C are the ends. Square brackets hold non-standard residues; d marks the D form. Peptide text beside a SMILES is read from it.

Series [1] can be described thus: Selectivity index, ratio of CC50 for human TZM-bl cells to IC50 for HIV-1 SF162 infected in TZM-bl cells. Type of series: functional.
In series [2] the test system is Human immunodeficiency virus 1. Description: Antiviral activity against HIV-1 SF162 infected in TZM-bl cells after 2 days by luciferase reporter gene assay. Particulars: Human immunodeficiency virus 1, SF162 ISOLATE, 48 h. Type of series: functional, cell-based.
Series [3] in a line: Cytotoxicity against human TZM-bl cells after 2 days by colorimetric XTT assay. Type of series: cell-based. Background: Tetrazolium dyes change colour on reduction, which living cells bring about.
In series [4] the test system is Human immunodeficiency virus 1. Description: Antiviral activity against HIV-1 SF162 infected in TZM-bl cells at 50 uM after 2 days by luciferase reporter gene assay. Type of series: functional, cell-based. The following applies: SF162 ISOLATE.

For the compound `CC(C)C[C@@H]1NC(=O)[C@@H](CC(C)C)NC(=O)[C@H](C(C)C)NC(=O)[C@H]2CSSC[C@@H](NC1=O)C(=O)N2` (cyclo(L[dC][dC]V[dL]); disulfide 2-3), in series [1], the “Ratio CC50/IC50” value worked out at 11.4. In series [2], 1.4 µM corresponded to half-maximal inhibition (IC50). The compound further had a 50% cytotoxic concentration (CC50) at 48 h in series [3] of 16.4 µM.
Regarding `NC(=O)c1c[nH]c(Cc2ccccc2)cc1=O`, in series [1], the “Ratio CC50/IC50” value came out at 7. Moreover, the IC50 in series [2] is 83.2 µM. This compound returned a CC50 at 48 h in series [3] of 583 µM.
As to `COc1cc([C@H](Cc2ccccc2)n2cc(C(N)=O)c(=O)cc2Cc2ccccc2)oc(=O)c1`, in series [4], the outcome was inactive.
On the same count and under the same terms, in the case of `COc1cc(OC)c2c(O)c3c(=O)cc(C)oc3cc2c1` it was “inactive”; in that of `COc1cc(O)cc2cc3c(c(O)c12)C(=O)CC(C)(O)O3` (stereo not drawn), “inactive”.
In series [2], `Nc1nc(NC2CC2)c2ncn([C@H]3C=C[C@@H](CO)C3)c2n1` [ABACAVIR] registered an IC50 of 0.8 µM.
For `COc1cc(O)c2c(O)c3c(=O)cc(C)oc3cc2c1` [RUBROFUSARIN], in series [1], the “Ratio CC50/IC50” value was 18.1. The IC50 in series [2] was 56.2 µM. The compound further yielded a CC50 at 48 h in series [3] of 1020 µM.
In series [2], `COc1ccc(S(=O)(=O)O)cc1/N=N/c1c(S(=O)(=O)O)cc2cc(Nc3nc(Nc4ccccc4)nc(Nc4cc(C)c(/N=N/c5cc(S(=O)(=O)O)cc6cc(S(=O)(=O)O)cc(O)c56)cc4OC)n3)ccc2c1O` gave a 50% inhibitory concentration (IC50) of 1.8 µM. This counts as single-digit micromolar.
In the case of `COc1cc([C@H](Cc2ccccc2)n2cc(C(=O)NC(=O)C[C@H](C)C(=O)O)c(=O)cc2Cc2ccccc2)oc(=O)c1`, in series [1], the “Ratio CC50/IC50” value was found to be 7.5. This compound also had a half-maximal inhibitory concentration (IC50) in series [2] of 4.7 µM. Besides, in series [3], the half-maximal cytotoxic concentration (CC50) at 48 h was found to be 35 µM.
In the case of `COC(=O)[C@@H](C)CC(=O)NC(=O)c1cn([C@@H](Cc2ccccc2)c2cc(OC)cc(=O)o2)c(Cc2ccccc2)cc1=O`, the result in series [4] was inactive.
